ChEMBL document CHEMBL1201862, “PubChem BioAssay data set” (2004)
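Compound exposure: 48 hours, 5 concentrations, 96-well plates. GI50 is the concentration that inhibits growth by half.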 Calls of active or inactive are those of the source. Cut-off read from the data, not from the text of the source: active = GI50 up to about 1.1 µM and inactive = higher.

How the values were obtained:
Test in all cases: NCI-60 cell line screen, 48 h
ACHN = system: ACHN
BT-549 = system: BT-549
COLO 205 = system: COLO 205
EKVX = system: EKVX
HOP-92 = system: HOP-92
HT-29 = system: HT-29
K562 = system: K562
M14 = system: M14
MCF7 = system: MCF7
MDA-MB-231 = system: MDA-MB-231
Malme-3M = system: Malme-3M
NCI-H460 = system: NCI-H460
NCI/ADR-RES = system: NCI/ADR-RES
OVCAR-8 = system: OVCAR-8
RXF 393 = system: RXF 393
SF-539 = system: SF-539
SK-MEL-5 = system: SK-MEL-5
SN12C = system: SN12C
U-251 = system: U-251
UO-31 = system: UO-31

SMILES: COc1cc2c(cc1OC)C(OC)N(C)c1c-2ccc2cc3c(cc12)OCO3 (stereo not given)
- GI50 (ACHN): 4.69 µM (inactive)
- GI50 (BT-549): 3.06 µM (inactive)
- GI50 (COLO 205): 0.733 µM (active)
- GI50 (EKVX): 1.82 µM (inactive)
- GI50 (HOP-92): 2.19 µM (inactive)
- GI50 (HT-29): 1.38 µM (inactive)
- GI50 (K562): 1.75 µM (inactive)
- GI50 (M14): 3.3 µM (inactive)
- GI50 (MCF7): 1.24 µM (inactive)
- GI50 (MDA-MB-231): 1.4 µM (inactive)
- GI50 (Malme-3M): 3.51 µM (inactive)
- GI50 (NCI-H460): 0.486 µM (active)
- GI50 (NCI/ADR-RES): 26.8 µM (inactive)
- GI50 (OVCAR-8): 1.72 µM (inactive)
- GI50 (RXF 393): 1.91 µM (inactive)
- GI50 (SF-539): 1.75 µM (inactive)
- GI50 (SK-MEL-5): 1.8 µM (inactive)
- GI50 (SN12C): 0.813 µM (active)
- GI50 (U-251): 0.356 µM (active)
- GI50 (UO-31): 18.1 µM (inactive)
